Experiments:
[1] = system: Caco-2 and HT29-MTX-E12 cells (ratio 3:1)
Description: With the WST-1 assay, mitochondrial activity of the cell is measured by the conversion of WST-1 into formazan dye by mitochondrial dehydrogenase enzymes. The assay is performed as follows: Caco-2 and HT29-MTX-E12 cells (ratio 3:1) were seeded in Greiner Bio-One (Alphen aan den Rijn, The Netherlands) flat-bottom 96-well plates at a concentration of 1 × 10^5 cells/mL in cell culture medium (100 μL/well). Plates were incubated for 24 h at 37 °C under 5% CO2. […] Then, the exposure medium containing (dilutions of) the compounds of interest was discarded and the cells were washed with pre-warmed HBSS. Subsequently, WST-1 reagent (in cell culture medium without phenol red) was added to the cells (1:10, 100 μL/well). After 1.5 h of incubation at 37 °C, the absorbance of each well was measured at 440 nm using a Bio-Tek (Winooski, VT, USA) Synergy HT Multi-Mode microplate reader.

[2] = system: monolayer of Caco-2/HT29-MTX cells; assay: Permeability in static Transwell system; conditions: static experiments, ergotamin(in)e 10 μg/mL apical
Description: (§1) The human colonic adenocarcinoma Caco-2 cell line was obtained from the American Type Culture Collection (ATCC, Manassas, VA, USA), and the human colon adenocarcinoma mucus-secreting HT29-MTX-E12 cell line was obtained from the European Collection of Authenticated Cell Cultures (ECACC, Salisbury, UK). Caco-2 cells were used at passage numbers 29–40, and HT29-MTX-E12 cells were used at passage numbers 52–70 for all experiments. Cells were cultured in DMEM containing 10% FBS, 1% NEAA and 1% penicillin-streptomycin and maintained at 37 °C in a 5% CO2-humidified air atmosphere and subcultured every 2 days to 3 days similar to the study of Abdelkhaliq et al.. For permeability experiments, cells were seeded at a density of 40,000 cells/cm^2 on a polycarbonate Transwell insert (area 0.6 cm^2, 0.4 μm pore size; Millipore) as follows: Caco-2 and HT29-MTX-E12 cells were seeded in a 3:1 ratio on the apical side of the Transwell system and allowed to attach for 24 h. After 24 h, cell culture medium was refreshed every 2–3 days and Transwell systems were used for permeability experiments following 21 days of culturing.
(§2) HEPES is added because the experiments with the flow-through Transwell systems are performed outside of a CO2-controlled incubator, and for the sake of comparability, it is added to the static Transwell systems as well. […]

[3] = system: monolayer of Caco-2/HT29-MTX cells; assay: Permeability in dynamic flow-through Transwell system, offline analysis; conditions: dynamic vs static, ergotamin(in)e 10 μg/mL
Description: as §1, §2

[4] = system: monolayer of Caco-2/HT29-MTX cells
Description: as §1

[5] = Permeability in static Transwell system; conditions: human
Description: as §1, §2

[6] = system: monolayer of Caco-2/HT29-MTX cells; assay: Lucifer yellow cell barrier integrity test; format: in vitro ADME, human; conditions: 500 μg/mL apical, 30 min, after permeability experiments (day 21); average
Description: Barrier integrity was evaluated similar to the study of Hubatsch et al., and cells were cultured on a Transwell membrane for 21 days and subsequently stained for tight junction protein ZO-1 and the cell nuclei. For this, the cells were washed with PBS and fixed with 4% paraformaldehyde (w/v) for 15 min. Cells were permeabilized with 0.25% Triton X-100 (v/v) and blocked with 1% BSA (w/v). The cells were then incubated with the conjugated antibody ZO-1/TJP1-Alexa Fluor 594 for 45 min (10 μg/mL). Subsequently, DAPI was used to stain the nuclei for 10 min (5 μg/mL). Between incubations, cells were washed with PBS three times. Cells were mounted in a 120-μm spacer (Sigma-Aldrich) on a microscope slide (Thermo Scientific) with ProLong Diamond Antifade Mountant. Slides were then examined using a Zeiss (Jena, Germany) LSM 510 META confocal microscope. Samples were excited with 405-nm and 543-nm lasers, and the pinholes were in the range of 90–94 μm at a magnification of × 40. Cell layer integrity was also evaluated using the transport marker Lucifer yellow. […] Cell culture medium was collected from the apical and basolateral sides at t = 0 and t = 30 min and analysed for fluorescence at 458 nm/530 nm using a Bio-Tek Synergy HT Multi-Mode microplate reader. […]

For Triton X-100, the cell viability ([1]; positive control, Triton X-100 0.25% v/v, percentage of negative control) was 0.4% ± 0.3.
For `CN1C[C@@H](C(=O)N[C@]2(C)O[C@@]3(O)[C@@H]4CCCN4C(=O)[C@H](Cc4ccccc4)N3C2=O)C=C2c3cccc4[nH]cc(c34)C[C@H]21` [ergotaminine], the apparent permeability coefficient [2] was 50.2 ± 5.8 × 10^−6 cm/s and the “permeability, times lower in the dynamic experiments compared to the static experiments” value [3] was 5 times.
In the case of `CN1C2CCCC1CC(NC(=O)c1nn(C)c3ccccc13)C2` (centres unmarked) [granisetron, Granisetron], the “cell-induced product formation on the basolateral side” value [4] is reported as “no cell-induced products were detected”, the “translocated across the in vitro intestinal barrier, cumulative % of the apical concentration” value ([4]; human, 3 h) is reported as 13.1% and the non-toxic concentration ([1]; human, 24 h) is reported as 10 µg/mL.
Molecule `CN1C[C@H](C(=O)N[C@]2(C)O[C@@]3(O)[C@@H]4CCCN4C(=O)[C@H](Cc4ccccc4)N3C2=O)C=C2c3cccc4[nH]cc(c34)C[C@H]21` [ergotamine] has a Papp at 180 min, 10 μg/mL [5] of 8.6 ± 1.2 ×10⁻⁶ cm/s.
With Lucifer yellow the “Lucifer yellow permeability (percentage of the apical concentration)” value [6] was 0.18% ± 0.06.
